Data reported in patent US20070173539A1, “Use of malonomicin and analogs in fungicidal applications” (priority 2006, published 2007).

Tests used:
Type in all cases: in vivo
[1] = system: Puccinia recondita f. sp. tritici (PUCCRT); assay: Brown Rust of Wheat Drop Line Test; conditions: Drop Line Test 0.5 μg/leaf, 2 microliter drop on wheat leaf
Description: (§1) Brown Rust of Wheat (Puccinia recondita f. sp. tritici-PUCCRT) (1 DP) Wheat (cultivar Monon) was grown in plastic pots (6.2 cm×8.75 cm) containing 50 percent mineral soil, 50 percent Metro-Mix 360 (W.R Grace and Co.) until the seedlings were 10-20 cm tall. These plants were then sprayed to runoff with the test compound at a rate of 200 ppm. After 24 hours the test plants were inoculated by spraying with an aqueous spore suspension of Puccinia recondita f. sp. tritici (PUCCRT). The plants were then transferred to a dew chamber for 24 hours, then to the greenhouse until disease developed on the untreated control plants. In Example 3, a Drop Line Test was used, wherein instead of spraying the plant to runoff, a 2 microliter drop was placed on the wheat leaf and observed for disease control.

[2] = system: Plasmopara viticola (PLASVI); assay: Downy Mildew of Grape one day protectant (1DP); conditions: grape (Carignane), sprayed to runoff, rate 200 ppm
Description: Final treatment volumes were obtained by adding 0.1 percent aqueous Ethomeen T25 or 0.1 percent aqueous Spraymate X77+0.1 percent wt./vol. ammonium sulfate^+. Downy Mildew of Grape (Plasmopara viticola-[…]) Vines (cultivar Carignane) were grown from seed in a soilless peat-based potting mixture “Metro-Mix 360” (W.R Grace and Co.) until the seedlings were 10-20 cm tall. These plants were then sprayed to runoff with the test compound at a rate of 200 ppm. After 24 hours the test plants were inoculated by spraying with an aqueous sporangia suspension of Plasmopara viticola ([…]). The plants were then transferred to a dew chamber for 24 hours, then to the greenhouse until disease developed on the untreated control plants.

[3] = system: Phytophthora infestans (PHYTIN); conditions: 1DP, tomato (rutgers), sprayed to runoff, rate 200 ppm
[4] = system: Puccinia recondita f. sp. tritici (PUCCRT); assay: Brown Rust of Wheat one day protectant (1DP); conditions: wheat (Monon), sprayed to runoff, rate 200 ppm
Description: as §1, with “Final treatment volumes were obtained by adding 0.1 percent aqueous Ethomeen T25 or 0.1 percent aqueous Spraymate X77+0.1 percent wt./vol. ammonium sulfate^+. Brown” for “Brown”, “plants.” for “plants. In Example 3, a Drop Line Test was used, wherein instead of spraying the plant to runoff, a 2 microliter drop was placed on the wheat leaf and observed for disease control.”

[5] = system: Leptosphaeria nodorum (LEPTNO); assay: Glume Blotch of Wheat one day protectant (1DP); conditions: wheat (Yuma), sprayed to runoff, rate 200 ppm
Description: Final treatment volumes were obtained by adding 0.1 percent aqueous Ethomeen T25 or 0.1 percent aqueous Spraymate X77+0.1 percent wt./vol. ammonium sulfate^+. Glume Blotch of Wheat (Leptosphaeria nodorum-[…]) Wheat (cultivar Yuma) was grown in plastic pots (6.2 cm×8.75 cm) containing 50 percent mineral soil, 50 percent Metro-Mix 360 (W.R Grace and Co.). until the seedlings were 10-20 cm tall. These plants were then sprayed to runoff with the test compound at a rate of 200 ppm. After 24 hours the test plants were inoculated by spraying with an aqueous spore suspension of Leptosphaeria nodorum ([…]). The plants were then transferred to a dew chamber for 24 hours, then to the greenhouse until disease developed on the untreated control plants.

[6] = system: Septoria tritici (SEPTTR); assay: Speckled Leaf Blotch of Wheat one day protectant (1DP); conditions: wheat (Monon), sprayed to runoff, rate 200 ppm
Description: Final treatment volumes were obtained by adding 0.1 percent aqueous Ethomeen T25 or 0.1 percent aqueous Spraymate X77+0.1 percent wt./vol. ammonium sulfate^+. Speckled Leaf Blotch of Wheat (Septoria tritici-[…]) Wheat (cultivar Monon) was grown in plastic pots (6.2 cm×8.75 cm) containing 50 percent mineral soil, 50 percent Metro-Mix 360 (W.R Grace and Co.) until the seedlings were 10-20 cm tall. These plants were then sprayed to runoff with the test compound at a rate of 200 ppm. After 24 hours the test plants were inoculated by spraying with an aqueous spore suspension of Septoria tritici ([…]). The plants were then transferred to a dew chamber for 24 hours, then to the greenhouse until disease developed on the untreated control plants.

[7] = system: Erysiphe graminis f. sp. tritici (ERYSGT); assay: Powdery Mildew of Wheat one day protectant (1DP); conditions: wheat (Monon), sprayed to runoff, rate 200 ppm
Description: Final treatment volumes were obtained by adding 0.1 percent aqueous Ethomeen T25 or 0.1 percent aqueous Spraymate X77+0.1 percent wt./vol. ammonium sulfate^+. Powdery Mildew of Wheat (Erysiphe graminis f. sp. tritici-[…]) Wheat (cultivar Monon) was grown in plastic pots (6.2 cm×8.75 cm) containing 50 percent mineral soil, 50 percent Metro-Mix 360 (W.R Grace and Co.) until the seedlings were 10-20 cm tall. These plants were then sprayed to runoff with the test compound at a rate of 200 ppm. After 24 hours the test plants were inoculated with Erysiphe graminis f. sp. tritici ([…]) by dusting spores from stock plants onto the test plants. The plants were then transferred to the greenhouse until disease developed on the untreated control plants.

Compound: C[C@H](N)C(=O)NC(CC(=O)O)(CC(=O)C1C(=O)N[C@@H](CN)C1=O)C(=O)O (some centres unmarked) [Compound III]
- PUCCRT percent control of plant disease [1]: + (+ = 30-74 percent control of plant disease)

Compound: C[C@H](N)C(=O)NC(CC(=O)C1=C(O)[C@H](CN)NC1=O)(C(=O)O)C(=O)O [Compound II]
- PLASVI percent control of plant disease [2]: − (− = 0-29 percent control of plant disease)
- PHYTIN percent control of plant disease [3]: + (+ = 30-74 percent control of plant disease)
- PUCCRT percent control of plant disease [4]: ++ (++ = 75-100 percent control of plant disease)
- LEPTNO percent control of plant disease [5]: − (− = 0-29 percent control of plant disease)
- SEPTTR percent control of plant disease [6]: + (+ = 30-74 percent control of plant disease)
- ERYSGT percent control of plant disease [7]: − (− = 0-29 percent control of plant disease)

Compound: NC[C@@H]1NC(=O)C(C(=O)CC(CC(=O)O)(NC(=O)[C@@H](N)CO)C(=O)O)=C1O (some centres unmarked) [Compound VI]
- PHYTIN percent control of plant disease [3]: − (− = 0-29 percent control of plant disease)
- PUCCRT percent control of plant disease [4]: ++ (++ = 75-100 percent control of plant disease)
- LEPTNO percent control of plant disease [5]: − (− = 0-29 percent control of plant disease)
- SEPTTR percent control of plant disease [6]: + (+ = 30-74 percent control of plant disease)
- ERYSGT percent control of plant disease [7]: − (− = 0-29 percent control of plant disease)

Compound: NC[C@@H]1NC(=O)C(C(=O)CC(CC(=O)O)(NC(=O)[C@@H](N)CO)C(=O)O)=C1O (some centres unmarked) [Compound V]
- PHYTIN percent control of plant disease [3]: + (+ = 30-74 percent control of plant disease)
- PUCCRT percent control of plant disease [4]: ++ (++ = 75-100 percent control of plant disease)
- LEPTNO percent control of plant disease [5]: − (− = 0-29 percent control of plant disease)
- SEPTTR percent control of plant disease [6]: − (− = 0-29 percent control of plant disease)
- ERYSGT percent control of plant disease [7]: − (− = 0-29 percent control of plant disease)
